The target of one assay is T1, collagenase (MMP-1) (Homo sapiens, UniProt P03956).
T1 sequence (P03956 100-469): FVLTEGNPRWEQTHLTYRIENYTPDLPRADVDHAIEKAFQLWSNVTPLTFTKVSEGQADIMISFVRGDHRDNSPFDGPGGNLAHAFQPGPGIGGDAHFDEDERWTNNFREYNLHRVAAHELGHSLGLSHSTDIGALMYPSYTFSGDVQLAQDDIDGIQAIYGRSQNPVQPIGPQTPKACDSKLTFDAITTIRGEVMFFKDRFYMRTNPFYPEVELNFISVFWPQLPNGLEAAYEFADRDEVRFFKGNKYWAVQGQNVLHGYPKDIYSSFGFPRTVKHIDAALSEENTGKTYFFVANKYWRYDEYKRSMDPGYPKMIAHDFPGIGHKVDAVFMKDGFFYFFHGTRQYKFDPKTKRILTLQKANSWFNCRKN
Description: MMP-1 enzyme inhibition assay (coumarin-labelled peptide substrate). Type of assay: biochemical. As to conditions: fluorogenic substrate McaPLGLDpaAR, 37° C., 2 hours. As to the method: (§1) Compounds of the invention were tested for inhibitory activity against 92 kDa gelatinase (MMP-9) in an assay using a coumarin-labeled peptide substrate, (7-methoxycoumarin-4-yl)acetyl-Pro-Leu-Gly-Leu-(3-[2,4-dinitrophenyl]-L-2,3-diaminopropionyl)-Ala-Arg-NH2 (McaPLGLDpaAR) (Knight et al, 1992, FEBS Lett., 263-266).
(§2) Stock solutions were made up as follows: Assay Butter: 100 mM Tris-HCl pH 7.6 containing 100 mM NaCl, 10 mM CaCl2, and 0.05% Brij 35.
(§3) Substrate: 0.4 mM McaPLGLDpaAR (from Bachem) (0.437 mg/ml) stock solution in 100% DMSO (stored at −20° C.). Dilute to 8 μM in assay butter.
(§4) Enzyme: Recombinant human 92 kDa gelatinase (MMP-9; APMA (4-aminophenyl mercuric acetate)-activated if necessary) appropriately diluted in assay butter.
(§5) Test Compounds were prepared initially as 10 mM compound solution in 100% DMSO, diluted to 1 mM in 100% DMSO, then serially diluted 3-fold in 100% DMSO across columns 1-10 of a 96-well microtitre plate Assay concentration range, 100 μM (column 1) to 5.1 nM (column 10).
(§6) The assay was performed in a total volume of 100 μL per well in 96-well microtitre plates. Activated enzyme (20 μL) was added to the wells followed by 20 μL of assay butter. Appropriate concentrations of test compounds dissolved in 10 μL of DMSO were then added followed by 50 μL of McaPLGLDpaAR ([…], prepared by dilution of DMSO stock in assay butter). For each as say ten concentrations of test compound were examined in duplicate. Control wells lack either enzyme or test compound. The reactions were incubated at 37° C. for 2 hours. The fluorescence at 405 nm was measured immediately with an SLT Fluostar fluorometer (SLT Labinstruments GmbH, Grodig, Austria) using 320 nm excitation, without stopping the reaction.
(§7) The effect of the test compound was determined from the dose response curve generated by the 10 duplicate concentrations of inhibitor. The IC50 (the concentration of compound required to give a 50% decrease in enzyme activity) was obtained by fitting data to the equation, Y=a+((b−a)/(1+(c/X)^d)). (Y=inhibition achieved for a particular dose; X=the dose in nM; a=minimum y or zero % inhibition; b=maximum y or 100% inhibition; c=is the IC50; d=is the slope). The result was rounded to one significant figure.
Compounds of the invention were tested for inhibitory activity against collagenase (MMP-1) in an assay using a coumarin-labelled peptide substrate, (7-methoxycoumarin-4-yl)acetyl-Pro-Leu-Gly-Leu-(3-[2,4-dinitrophenyl]-L-2,3diaminopropionyl)-Ala-Arg-NH2 (Mca PLGLDpaAR) (Knight et al, 1992, above). The protocol for this assay was as described for the MMP-9 assay above.

The next assay addresses metalloelastase (MMP-12) (Homo sapiens, UniProt P39900). Description: MMP-12 enzyme inhibition assay (coumarin-labelled peptide substrate). Type of assay: biochemical. Conditions: fluorogenic substrate McaPLGLDpaAR, 37° C., 2 hours. As to the method: as §1, §2, §3, §4, §5, §6, §7
Compounds of the invention were tested for inhibitory activity against metalloelastase (MMP-12) in an assay using a coumarin-labelled peptide substrate, (7-methoxycoumarin-4-yl)acetyl-Pro-Leu-Gly-Leu-(3-[2,4dinitrophenyl]-L-2,3-diaminopropionyl)-Ala-Arg-NH2 (McaPLGLDpaAR) (Knight et al, 1992, above). The protocol for this assay was as described for the MMP-9 assay above.

The test system of assay [1] is IL-2-induced peritoneal recruitment of lymphocytes. The experiment in a line: IL-2-induced peritoneal recruitment of lymphocytes. Conditions: mice, 1 mg/kg po, 15 min prior to IL-2; cells collected 24 h after IL-2. It is filed as in vivo, C3H/HEN mice. As to the method:
Administration of IL-2 intraperitoneally causes migration of lymphocytes into the intraperitoneal cavity. This is a model for the cellular migration that occurs during inflammation.
C3H/HEN mice (Elevage Janvier, France) are intraperitoneally injected with IL-2 (Serono Pharmaceutical Research Institute, 20 μg/kg, in saline).
Compounds of the invention are suspended in 0.5% carboxymethylcellulose (CMC)/0.25% tween-20 and are administered by s.c. or p.o. route (10 ml/kg) 15 min prior to administration of IL-2.
Twenty-four hours after administration of IL-2, peritoneal white blood cells are collected by 3 successive lavages of the peritoneal cavity with 5 ml phosphate buffered saline (PBS)-1 mM EDTA (+4° C.). The suspension is centrifuged (1700 g×10 min at +4° C.). The resulting pellet is suspended in 1 ml PBS-1 mM EDTA.
Lymphocytes are identified and counted using a Beckman/Coulter counter.
The animals are divided into 6 groups (6 mice each group):
Group 1: (baseline) receives 0.5% CMC/0.25% tween-20 (vehicle of compound of the invention) and saline (vehicle of IL-2);
Group 2: (control IL-2) receives 0.5% CMC/0.25% tween-20 and injection of IL-2;
Group 3: Experimental group (Compound of the invention Dose 1) receives a compound of the invention and injection of IL-2; […]
Inhibition of lymphocyte recruitment is calculated as follows: […]

We go through 4 compounds from US8198280B2, “N-hydroxyamide derivatives and use thereof” (Merck Serono SA, priority 2005, dated 2012).

metalloelastase (MMP-12), sequence (P39900 106-470): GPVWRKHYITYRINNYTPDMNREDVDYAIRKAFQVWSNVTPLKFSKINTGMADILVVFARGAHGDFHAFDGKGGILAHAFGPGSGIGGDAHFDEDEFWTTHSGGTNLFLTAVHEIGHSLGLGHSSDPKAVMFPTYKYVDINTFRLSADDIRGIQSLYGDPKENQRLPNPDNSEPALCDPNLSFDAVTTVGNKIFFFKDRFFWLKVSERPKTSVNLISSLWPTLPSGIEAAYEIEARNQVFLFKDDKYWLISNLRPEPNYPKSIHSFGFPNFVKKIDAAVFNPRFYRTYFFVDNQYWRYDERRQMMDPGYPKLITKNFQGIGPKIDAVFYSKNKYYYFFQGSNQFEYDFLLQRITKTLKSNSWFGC

In the case of `O=C(NO)[C@H](O)CC(=O)N1CCN(c2ccc(F)cc2)CC1` [Example 1, (2R)-4-[4-(4-fluorophenyl)piperazin-1-yl]-N,2-dihydroxy-4-oxo butanamide], the values for the half-maximal inhibitory concentration (IC50) on collagenase (MMP-1) and against metalloelastase (MMP-12) were > 5000 nM and 264 nM, respectively.
With `O=C(NO)[C@@H](O)CC(=O)N1CCN(c2ccc(F)cc2)CC1` [Example 2, (2S)-4-[4-(4-fluorophenyl)piperazin-1-yl]-N,2-dihydroxy-4-oxobutanamide], the IC50 (commonly the midpoint of a concentration-inhibition curve) is > 5000 nM against collagenase (MMP-1) and 58 nM against metalloelastase (MMP-12). The “% inhibition of IL-2-induced peritoneal recruitment of lymphocytes” value in assay [1] is 51%.
As to `C[C@@H]1CN(c2ccc(OC(F)(F)F)cc2)CCN1C(=O)C[C@H](O)C(=O)NO` [Example 3, (2S)—N,2-dihydroxy-4-{(2R)-2-methyl-4-[4-(trifluoromethoxy)phenyl]piperazin-1-yl}-4-oxobutanamide], the IC50 is > 5000 nM at collagenase (MMP-1) and 5 nM at metalloelastase (MMP-12).
`C[C@@H]1CN(c2ccc(-c3ccccc3)cc2)CCN1C(=O)C[C@H](O)C(=O)NO` [Example 4, (2S)-4-[(2R)-4-biphenyl-4-yl-2-methylpiperazin-1-yl]-N,2-dihydroxy-4-oxobutanamide]: the half-inhibitory concentration (IC50) against collagenase (MMP-1) was > 5000 nM; against metalloelastase (MMP-12) it was 5 nM.
